From ChEMBL document CHEMBL1201862, “PubChem BioAssay data set” (2004) come the findings set out here.

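48-hour exposure; five concentrations; linearly interpolated endpoints. The concentration for 50% growth inhibition is given as GI50.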 The source made the active and inactive calls. No stated cut-off is given here; in the data, active = GI50 up to about 1.1 µM and inactive = higher.

What all share (assay): NCI-60 cell line screen, 48 h
For experiment [1], the system named is 786-0.
Experiment [2] deals with A498.
Experiment [3] deals with A549.
Experiment [4] has as its system ACHN.
Experiment [5] has as its system CAKI-1.
Experiment [6] deals with EKVX.
The test system of experiment [7] is HT-29.
Experiment [8] concerns KM12.
The test system of experiment [9] is MCF7.
For experiment [10], the system named is MDA-MB-435.
The subject of experiment [11] is MOLT-4.
In experiment [12] the test system is OVCAR-8.
The test system of experiment [13] is SF-295.
Experiment [14] has as its system SK-OV-3.
Experiment [15] deals with CCRF-CEM.
Experiment [16] concerns HCT-116.
Experiment [17] deals with HOP-92.
The test system of experiment [18] is LOX IMVI.
Experiment [19] deals with Malme-3M.
The test system of experiment [20] is NCI-H522.

As to `NNC(=O)Cn1c2ccc(Br)cc2c2nc3ccccc3nc21`, the GI50 in experiment [1] is 17.9 µM (inactive); in [2] it was 47.1 µM (inactive); in experiment [3] it was 94.8 µM (inactive); in experiment [4], 36.6 µM (inactive); in experiment [5] it was > 100 µM (inactive); in [6], 9.59 µM (inactive). For the same molecule, the GI50 in experiment [7] is > 100 µM (inactive); in experiment [8] it was > 100 µM (inactive); in [9] it was 69.3 µM (inactive); in experiment [10] it was > 100 µM (inactive); in experiment [11], 11.7 µM (inactive); in [12], 54.3 µM (inactive). Besides, the GI50 was 21.8 µM (inactive) in experiment [13] and 43.7 µM (inactive) in experiment [14].
As to `O=C1NC(=N/c2ccccc2)/C(=N\c2ccccc2)N1c1ccccc1`, the GI50 is 15.5 µM (inactive) in experiment [1]; 17.2 µM (inactive) in [2]; 15.9 µM (inactive) in [3]; 16.9 µM (inactive) in experiment [4]; 16.3 µM (inactive) in experiment [5]; 30.3 µM (inactive) in experiment [15]. The GI50 was 16.7 µM (inactive) in experiment [6]; 17.7 µM (inactive) in experiment [16]; 16.3 µM (inactive) in experiment [17]; 16 µM (inactive) in [7]; 15.6 µM (inactive) in experiment [8]; 16.3 µM (inactive) in experiment [18]. The GI50 is 14.2 µM (inactive) in [10]; 25.9 µM (inactive) in experiment [11]; 17.4 µM (inactive) in [19]; 1.7 µM (inactive) in experiment [20]; 15.8 µM (inactive) in experiment [12]; 15.8 µM (inactive) in [13]. The GI50 in experiment [14] was 17.6 µM (inactive).
As to `O=C(/C=C/c1ccccc1)CCC1C(=O)NC(=S)NC1=O`, the GI50 in [1] is > 100 µM (inactive); in experiment [2], > 100 µM (inactive); in experiment [3], > 100 µM (inactive); in experiment [4], > 100 µM (inactive); in experiment [5], 26.5 µM (inactive); in [16], > 100 µM (inactive). For the same molecule, the GI50 in experiment [17], in experiment [18], in [10], in experiment [11], in [12] and in experiment [13] was > 100 µM (inactive) throughout. Also, the GI50 in experiment [14] is > 100 µM (inactive).
In the case of `Cc1ccc2nc(N/N=C/c3ccc(C)s3)cc(C)c2c1`, the GI50 in [1] was 3.37 µM (inactive); in experiment [3] it was 6.79 µM (inactive); in experiment [4], 11.7 µM (inactive); in experiment [5], 17.1 µM (inactive); in experiment [15], 5.11 µM (inactive); in [6], 5.7 µM (inactive). The GI50 in [16] is 3.7 µM (inactive); in experiment [17] it was 4.44 µM (inactive); in experiment [7], 3.51 µM (inactive); in experiment [8], 4.76 µM (inactive); in experiment [18], 4.53 µM (inactive); in experiment [9] it was 6.79 µM (inactive). The GI50 in experiment [10] was 7.31 µM (inactive); in experiment [11], 5.75 µM (inactive); in [19], 12.8 µM (inactive); in experiment [20], 4.52 µM (inactive); in experiment [12], 12.9 µM (inactive); in experiment [13] it was 7.94 µM (inactive). Besides, the GI50 in [14] is 18.3 µM (inactive).
With `O=C(c1ccccc1)n1[nH]c(=O)n(-c2ccc(Cl)cc2)c1=O`, the GI50 in [1], in experiment [3], in experiment [4], in experiment [5], in experiment [15] and in experiment [6] was > 100 µM (inactive) throughout. The GI50 in [16], in experiment [7], in experiment [8], in experiment [18], in experiment [9] and in experiment [10] was > 100 µM (inactive) in each case. Moreover, the GI50 in experiment [11], in experiment [19], in [12], in [13] and in [14] was > 100 µM (inactive) each time.
Regarding `O=C(Oc1c(Br)cc(Br)cc1C(=O)Oc1ccccc1)C(=O)Oc1c(Br)cc(Br)cc1C(=O)Oc1ccccc1`, the GI50 in [1] is 19.6 µM (inactive); in [3] it was 14.5 µM (inactive); in experiment [4] it was 27.7 µM (inactive); in [5] it was 19.7 µM (inactive); in experiment [6], 26.2 µM (inactive); in experiment [16] it was 14.4 µM (inactive). For the same molecule, the GI50 is 12 µM (inactive) in [17]; 32.7 µM (inactive) in experiment [7]; 24 µM (inactive) in experiment [8]; 26.7 µM (inactive) in [9]; 10.1 µM (inactive) in experiment [10]; 14.9 µM (inactive) in experiment [11]. Besides, the GI50 in experiment [19] is 20.9 µM (inactive); in experiment [20], 14.4 µM (inactive); in experiment [12], 30.8 µM (inactive); in [13] it was 31 µM (inactive); in [14], 33.8 µM (inactive).
`COc1ccc2[nH]c3c([N+](=O)[O-])ccc(NCCCN(C)C)c3/c(=N/CCCN(C)C)c2c1`: the GI50 in [1] is 0.94 µM (active); in experiment [3], 1.74 µM (inactive); in experiment [5] it was 2.07 µM (inactive); in experiment [15], 0.448 µM (active); in [6], 2.55 µM (inactive); in experiment [17], 3.33 µM (inactive). The GI50 in experiment [7] was 1.12 µM (inactive); in [8], 1.08 µM (active); in experiment [18] it was 1.41 µM (inactive); in experiment [9], 0.743 µM (active); in experiment [10] it was 7.62 µM (inactive); in experiment [11], 0.31 µM (active). Also, the GI50 in experiment [19] is 9.75 µM (inactive); in [12], 0.893 µM (active); in [13], 1.63 µM (inactive); in experiment [14], 2.01 µM (inactive).
As to `CC(=O)OCC1OC(n2c(-c3ccccc3)c(/N=N/c3ccccc3)c(C)c(C#N)c2=S)C(OC(C)=O)C(OC(C)=O)C1OC(C)=O` (stereo unspecified), the GI50 in experiment [1], in experiment [3], in experiment [4], in [5], in experiment [15] and in experiment [16] was > 100 µM (inactive) each time. In addition, the GI50 in experiment [17] is 28.4 µM (inactive); in experiment [7], > 100 µM (inactive); in experiment [8], > 100 µM (inactive); in [18] it was > 100 µM (inactive); in [9] it was > 100 µM (inactive); in experiment [10], > 100 µM (inactive). Moreover, the GI50 in [11], in experiment [19], in [13] and in [14] was > 100 µM (inactive) in each case.
As for `Cc1cc(Cl)ccc1NC(=O)/C(Cl)=C(/Cl)C(=O)O`, the GI50 was 23.1 µM (inactive) in [1]; 48.8 µM (inactive) in experiment [3]; 19.3 µM (inactive) in experiment [4]; 18.3 µM (inactive) in [5]; 17.3 µM (inactive) in experiment [15]; 19.1 µM (inactive) in experiment [6]. Besides, the GI50 in experiment [16] is 19 µM (inactive); in experiment [17], 22.1 µM (inactive); in [7], 22.9 µM (inactive); in experiment [8], 31 µM (inactive); in experiment [18], 19.9 µM (inactive); in experiment [9] it was 21.4 µM (inactive). In addition, the GI50 is 20.6 µM (inactive) in [10]; 15.4 µM (inactive) in experiment [20]; 17.7 µM (inactive) in experiment [12]; > 100 µM (inactive) in [13]; > 100 µM (inactive) in [14].
As to `CCOC(=O)C1C[C@H]2CO[C@H](c3ccccc3)N2C1=O` (stereo partly specified), the GI50 in [1], in experiment [3], in experiment [4], in experiment [5], in experiment [15] and in [6] was > 100 µM (inactive) each time. Moreover, the GI50 in [16], in [17], in experiment [7], in [8], in experiment [18] and in [9] was > 100 µM (inactive) throughout. For the same molecule, the GI50 in [10], in [11], in experiment [19], in experiment [20], in experiment [12] and in [13] was > 100 µM (inactive) each time.
Turning to `N#Cc1c(-c2ccccc2)cc(Nc2cccc(C(F)(F)F)c2)n2c1nc1ccccc12`, the GI50 was 1.54 µM (inactive) in experiment [1]; 1.64 µM (inactive) in experiment [2]; 1.88 µM (inactive) in experiment [4]; 1.91 µM (inactive) in [5]; 1.2 µM (inactive) in [6]; 0.471 µM (active) in experiment [16]. The GI50 in experiment [17] is 0.206 µM (active); in experiment [7] it was 1.16 µM (inactive); in [8], 2.17 µM (inactive); in [18] it was 1.2 µM (inactive); in experiment [10], 2.01 µM (inactive); in experiment [11], 0.76 µM (active). Moreover, the GI50 is 1.27 µM (inactive) in experiment [19]; 0.245 µM (active) in experiment [20]; 1.01 µM (active) in experiment [12]; 1.7 µM (inactive) in experiment [13]; 1.11 µM (active) in [14].
Consider `CCN(CC)c1ccc2cc(C(=O)Nc3ccccc3)c(=N)oc2c1`, for which the GI50 in [1], in [3], in experiment [4], in experiment [5], in [15] and in experiment [6] was > 100 µM (inactive) in each case. Further, the GI50 in experiment [16], in experiment [17], in [7], in [8], in experiment [18] and in experiment [9] was > 100 µM (inactive) each time. For the same molecule, the GI50 in experiment [10], in experiment [11], in [19], in [12], in [13] and in experiment [14] was > 100 µM (inactive) each time.
